Test results: patent US20230265151A1, “GIP/GLP1 CO-AGONIST COMPOUNDS” (priority 2020, published 2023)
Read-outs that look alike come from different tables or passages of the source. *1 amine or outer side, *2 acyl side, *3 side chain or, on linkers, in order; H or OH if unused. Where a SMILES comes first, the peptide text is derived from it. Side-chain parts run from the residue outwards. [ ]: non-standard residue; d: D form. The star is where a group is joined. αMePhe(2-F) = C[C@](N)(Cc1ccccc1F)C(=O)O; γGlu = O=C(O)[C@H](CCC(=O)[*:2])N[*:1]; C14 diacid = O=C(O)CCCCCCCCCCCCC(=O)*; αMeY = C[C@](N)(Cc1ccc(O)cc1)C(=O)O; 4Pal = N[C@@H](Cc1ccncc1)C(=O)O; αMeL = CC(C)C[C@](C)(N)C(=O)O; Orn = NCCC[C@H](N)C(=O)O; AEEA = NCCOCCOCC(=O)O; Aib = CC(C)(N)C(=O)O

Columns and labels:
Type in all cases: cell-based
hGIPR = target: T1, hGIPR (Homo sapiens, UniProt P48546); test: Functional cAMP formation (HTRF) in HEK-293 clonal cells expressing hGIPR, 0.1% bovine casein, without or with 1.0% human serum albumin; conditions: for Emax: read-out: hGIPR Emax, % ± SEM; for EC50: geometric mean, read-out: hGIPR EC50, nM (SEM, n)
T1 construct: expressed in transfected cells
T1 sequence (P48546 22-466): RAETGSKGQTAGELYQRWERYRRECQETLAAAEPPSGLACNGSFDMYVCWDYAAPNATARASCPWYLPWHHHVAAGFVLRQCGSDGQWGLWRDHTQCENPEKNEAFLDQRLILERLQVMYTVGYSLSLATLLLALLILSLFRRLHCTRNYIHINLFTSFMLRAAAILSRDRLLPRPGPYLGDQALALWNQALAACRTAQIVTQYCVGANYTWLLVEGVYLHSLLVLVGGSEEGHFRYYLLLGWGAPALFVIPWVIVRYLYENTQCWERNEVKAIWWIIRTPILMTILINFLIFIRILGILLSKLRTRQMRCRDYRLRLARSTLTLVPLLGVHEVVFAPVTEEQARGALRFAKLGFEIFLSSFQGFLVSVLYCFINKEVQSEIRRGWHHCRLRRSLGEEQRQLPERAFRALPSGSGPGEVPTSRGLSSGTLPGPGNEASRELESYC
Outline: (§1)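 Readings of the HTRF 665/620 nm ratio, which falls as cAMP rises, were converted to nM cAMP using a standard curve after 30 min peptide exposure at 37° C.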

hGCGR = target: T2, hGCGR (Homo sapiens, UniProt P47871); test: Functional cAMP formation (HTRF) in HEK-293 clonal cells expressing hGCGR, 0.1% bovine casein, without or with 1.0% human serum albumin; conditions: geometric mean, read-out: hGCGR EC50, nM (SEM, n)
T2 construct: expressed in transfected cells
T2 sequence (P47871 26-477): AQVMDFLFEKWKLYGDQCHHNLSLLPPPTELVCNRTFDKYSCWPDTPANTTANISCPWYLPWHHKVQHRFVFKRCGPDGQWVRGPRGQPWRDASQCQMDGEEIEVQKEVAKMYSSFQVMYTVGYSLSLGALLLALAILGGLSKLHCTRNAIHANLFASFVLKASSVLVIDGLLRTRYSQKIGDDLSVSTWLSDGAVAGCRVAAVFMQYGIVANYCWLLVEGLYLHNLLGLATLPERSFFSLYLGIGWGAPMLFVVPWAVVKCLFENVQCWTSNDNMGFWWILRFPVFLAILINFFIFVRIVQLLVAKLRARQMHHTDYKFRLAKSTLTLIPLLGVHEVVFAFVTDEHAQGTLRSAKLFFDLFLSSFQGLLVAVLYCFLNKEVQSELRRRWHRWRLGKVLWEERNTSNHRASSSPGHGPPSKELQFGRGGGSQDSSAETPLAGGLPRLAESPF
Outline: as §1

hGLP-1R = hGLP-1R (Homo sapiens, UniProt P43220); test: Functional cAMP formation (HTRF) in HEK-293 clonal cells expressing hGLP-1R, 0.1% bovine casein, without or with 1.0% human serum albumin; set-up: expressed in transfected cells; conditions: for Emax: read-out: hGLP-1R Emax, % ± SEM; for EC50: geometric mean, read-out: hGLP-1R EC50, nM (SEM, n)
Chain of hGLP-1R (P43220 24-463): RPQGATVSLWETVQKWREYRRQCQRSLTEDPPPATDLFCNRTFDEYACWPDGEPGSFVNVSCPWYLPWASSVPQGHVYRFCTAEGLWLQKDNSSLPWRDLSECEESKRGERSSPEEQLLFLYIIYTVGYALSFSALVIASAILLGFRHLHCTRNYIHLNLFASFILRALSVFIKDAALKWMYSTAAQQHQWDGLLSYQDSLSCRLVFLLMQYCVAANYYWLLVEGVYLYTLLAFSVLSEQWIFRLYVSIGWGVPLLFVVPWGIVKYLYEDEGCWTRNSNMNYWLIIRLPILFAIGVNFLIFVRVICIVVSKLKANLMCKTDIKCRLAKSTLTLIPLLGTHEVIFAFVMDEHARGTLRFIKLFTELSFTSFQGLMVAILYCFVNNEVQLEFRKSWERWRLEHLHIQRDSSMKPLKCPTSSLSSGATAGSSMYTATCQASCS
Outline: as §1

[1] = HEK293, 0.1% bovine casein and 1.0% human serum albumin, 37° C., percent of maximal response to GIP(1-42)NH2
[2] = cAMP, incubated at 37° C., 0.1% bovine casein (no human serum albumin)
[3] = 0.1% bovine casein and 1.0% human serum albumin, 37° C.
[4] = HEK293, 0.1% bovine casein and 1.0% human serum albumin, 37° C., percent of maximal response to GLP-1(7-36)NH2
[5] = HEK293, percent of maximal response to GLP-1(7-36)NH2, 37° C., 0.1% bovine casein, arithmetic mean
[6] = HEK293, percent of maximal response to GIP(1-42)NH2, 37° C., 0.1% bovine casein, arithmetic mean

Structure (SMILES) | Emax (hGIPR; [1]) [%] | EC50 (hGIPR; [2]) [nM] | EC50 (hGCGR; [3]) [nM] | EC50 (hGCGR; [2]) [nM] | Emax (hGLP-1R; [4]) [%] | Emax (hGLP-1R; [5]) [%] | EC50 (hGLP-1R; [2]) [nM] | Emax (hGIPR; [6]) [%] | EC50 (hGIPR; [3]) [nM] | EC50 (hGLP-1R; [3]) [nM]
CC[C@H](C)[C@H](NC(=O)[C@H](CCCN)NC(=O)[C@H](CC(=O)O)NC(=O)[C@H](CC(C)C)NC(=O)[C@](C)(CC(C)C)NC(=O)[C@@H](NC(=O)[C@H](CO)NC(=O)[C@H](Cc1ccncc1)NC(=O)[C@H](CC(=O)O)NC(=O)[C@H](CO)NC(=O)[C@@H](NC(=O)[C@](C)(Cc1ccccc1F)NC(=O)[C@@H](NC(=O)CNC(=O)[C@H](CCC(=O)O)NC(=O)C(C)(C)NC(=O)[C@@H](N)Cc1ccc(O)cc1)[C@@H](C)O)[C@@H](C)O)[C@@H](C)CC)C(=O)N[C@@H](C)C(=O)N[C@@H](CCC(N)=O)C(=O)NC(C)(C)C(=O)N[C@@H](CCC(=O)O)C(=O)N[C@@H](Cc1ccccc1)C(=O)N[C@H](C(=O)N[C@H](CCC(=O)O)C(=O)N[C@@](C)(Cc1ccc(O)cc1)C(=O)N[C@@H](CC(C)C)C(=O)N[C@H](C(=O)N[C@@H](CCCCNC(=O)COCCOCCNC(=O)COCCOCCNC(=O)COCCOCCNC(=O)CC[C@H](NC(=O)CCCCCCCCCCCCC(=O)O)C(=O)O)C(=O)NCC(=O)NCC(=O)N1CCC[C@H]1C(=O)N[C@@H](CO)C(=O)N[C@@H](CO)C(=O)NCC(=O)N[C@@H](C)C(=O)N1CCC[C@H]1C(=O)N1CCC[C@H]1C(=O)N1CCC[C@H]1C(=O)N[C@@H](CO)C(=O)N[C@@H](CCCCNC(=O)COCCOCCNC(=O)COCCOCCNC(=O)COCCOCCNC(=O)CC[C@H](NC(=O)CCCCCCCCCCCCC(=O)O)C(=O)O)C(N)=O)[C@@H](C)CC)[C@@H](C)CC [Example 229] (H-Y[Aib]EGT[αMePhe(2-F)]TSD[4Pal]SI[αMeL]LD[Orn]IAQ[Aib]EFI[dE][αMeY]LIK([AEEA-AEEA-AEEA-γGlu-C14 diacid])GGPSSGAPPPSK([AEEA-AEEA-AEEA-γGlu-C14 diacid])-NH2) | 80.5 | 0.0253 | > 9950 | > 9950 | 99 | 94.3 | 2.25 | – | – | –
CC[C@H](C)[C@H](NC(=O)[C@H](CC(C)C)NC(=O)[C@](C)(Cc1ccc(O)cc1)NC(=O)[C@@H](CCC(=O)O)NC(=O)[C@@H](NC(=O)[C@H](Cc1ccccc1)NC(=O)[C@H](CCCCNC(=O)COCCOCCNC(=O)COCCOCCNC(=O)CC[C@H](NC(=O)CCCCCCCCCCCCC(=O)O)C(=O)O)NC(=O)C(C)(C)NC(=O)[C@H](CCC(N)=O)NC(=O)[C@H](C)NC(=O)[C@H](CCCCNC(=O)COCCOCCNC(=O)COCCOCCNC(=O)CC[C@H](NC(=O)CCCCCCCCCCCCC(=O)O)C(=O)O)NC(=O)[C@H](CCCN)NC(=O)[C@H](CC(=O)O)NC(=O)[C@H](CC(C)C)NC(=O)[C@](C)(CC(C)C)NC(=O)[C@@H](NC(=O)C(C)(C)NC(=O)[C@H](Cc1ccc(O)cc1)NC(=O)[C@H](CC(=O)O)NC(=O)[C@H](CO)NC(=O)[C@@H](NC(=O)[C@](C)(Cc1ccccc1F)NC(=O)[C@@H](NC(=O)CNC(=O)[C@H](CCC(=O)O)NC(=O)C(C)(C)NC(=O)[C@@H](N)Cc1ccc(O)cc1)[C@@H](C)O)[C@@H](C)O)[C@@H](C)CC)[C@@H](C)CC)C(=O)N[C@@H](CCC(=O)O)C(=O)NCC(=O)NCC(=O)N1CCC[C@H]1C(=O)N[C@@H](CO)C(=O)N[C@@H](CO)C(=O)NCC(=O)N[C@@H](C)C(=O)N1CCC[C@H]1C(=O)N1CCC[C@H]1C(=O)N1CCC[C@H]1C(=O)N[C@@H](CO)C(N)=O [Example 230] | 85.8 | 0.0199 | > 9950 | > 9950 | – | 90.3 | 0.726 | 105 | – | –
CC[C@H](C)[C@H](NC(=O)[C@H](CC(C)C)NC(=O)[C@](C)(Cc1ccc(O)cc1)NC(=O)[C@@H](CCC(=O)O)NC(=O)[C@@H](NC(=O)[C@H](Cc1ccccc1)NC(=O)[C@H](CCC(=O)O)NC(=O)C(C)(C)NC(=O)[C@H](CCC(N)=O)NC(=O)[C@H](C)NC(=O)[C@H](CCCCNC(=O)COCCOCCNC(=O)COCCOCCNC(=O)CC[C@H](NC(=O)CCCCCCCCCCCCC(=O)O)C(=O)O)NC(=O)[C@H](CCCN)NC(=O)[C@H](CC(=O)O)NC(=O)[C@H](CC(C)C)NC(=O)[C@](C)(CC(C)C)NC(=O)[C@@H](NC(=O)C(C)(C)NC(=O)[C@H](Cc1ccc(O)cc1)NC(=O)[C@H](CC(=O)O)NC(=O)[C@H](CO)NC(=O)[C@@H](NC(=O)[C@](C)(Cc1ccccc1F)NC(=O)[C@@H](NC(=O)CNC(=O)[C@H](CCC(=O)O)NC(=O)C(C)(C)NC(=O)[C@@H](N)Cc1ccc(O)cc1)[C@@H](C)O)[C@@H](C)O)[C@@H](C)CC)[C@@H](C)CC)C(=O)N[C@@H](CCCCNC(=O)COCCOCCNC(=O)COCCOCCNC(=O)CC[C@H](NC(=O)CCCCCCCCCCCCC(=O)O)C(=O)O)C(=O)NCC(=O)NCC(=O)N1CCC[C@H]1C(=O)N[C@@H](CO)C(=O)N[C@@H](CO)C(=O)NCC(=O)N[C@@H](C)C(=O)N1CCC[C@H]1C(=O)N1CCC[C@H]1C(=O)N1CCC[C@H]1C(=O)N[C@@H](CO)C(N)=O [Example 231] | 85.4 | 0.0184 | > 9950 | > 9950 | 109 | – | 1.22 | – | 2.46 | –
CC[C@H](C)[C@H](NC(=O)[C@H](CC(C)C)NC(=O)[C@](C)(Cc1ccc(O)cc1)NC(=O)[C@@H](CCC(=O)O)NC(=O)[C@@H](NC(=O)[C@H](Cc1ccccc1)NC(=O)[C@H](CCC(=O)O)NC(=O)C(C)(C)NC(=O)[C@H](CCC(N)=O)NC(=O)[C@H](C)NC(=O)[C@H](CCCCNC(=O)COCCOCCNC(=O)COCCOCCNC(=O)CC[C@H](NC(=O)CCCCCCCCCCCCC(=O)O)C(=O)O)NC(=O)[C@H](CCCN)NC(=O)[C@H](CC(=O)O)NC(=O)[C@H](CC(C)C)NC(=O)[C@](C)(CC(C)C)NC(=O)[C@@H](NC(=O)C(C)(C)NC(=O)[C@H](Cc1ccc(O)cc1)NC(=O)[C@H](CC(=O)O)NC(=O)[C@H](CO)NC(=O)[C@@H](NC(=O)[C@](C)(Cc1ccccc1F)NC(=O)[C@@H](NC(=O)CNC(=O)[C@H](CCC(=O)O)NC(=O)C(C)(C)NC(=O)[C@@H](N)Cc1ccc(O)cc1)[C@@H](C)O)[C@@H](C)O)[C@@H](C)CC)[C@@H](C)CC)C(=O)N[C@@H](CCC(=O)O)C(=O)NCC(=O)NCC(=O)N1CCC[C@H]1C(=O)N[C@@H](CO)C(=O)N[C@@H](CO)C(=O)NCC(=O)N[C@@H](C)C(=O)N1CCC[C@H]1C(=O)N1CCC[C@H]1C(=O)N1CCC[C@H]1C(=O)N[C@@H](CO)C(=O)N[C@@H](CCCCNC(=O)COCCOCCNC(=O)COCCOCCNC(=O)CC[C@H](NC(=O)CCCCCCCCCCCCC(=O)O)C(=O)O)C(N)=O [Example 232] | 91.5 | 0.0192 | > 9950 | > 9950 | 95.4 | – | 0.565 | – | – | –
CC[C@H](C)[C@H](NC(=O)[C@H](CCCN)NC(=O)[C@H](CC(=O)O)NC(=O)[C@H](CC(C)C)NC(=O)[C@](C)(CC(C)C)NC(=O)[C@@H](NC(=O)C(C)(C)NC(=O)[C@H](Cc1ccc(O)cc1)NC(=O)[C@H](CC(=O)O)NC(=O)[C@H](CO)NC(=O)[C@@H](NC(=O)[C@](C)(Cc1ccccc1F)NC(=O)[C@@H](NC(=O)CNC(=O)[C@H](CCC(=O)O)NC(=O)C(C)(C)NC(=O)[C@@H](N)Cc1ccc(O)cc1)[C@@H](C)O)[C@@H](C)O)[C@@H](C)CC)C(=O)N[C@@H](C)C(=O)N[C@@H](CCC(N)=O)C(=O)NC(C)(C)C(=O)N[C@@H](CCC(=O)O)C(=O)N[C@@H](Cc1ccccc1)C(=O)N[C@H](C(=O)N[C@@H](CCCCNC(=O)COCCOCCNC(=O)COCCOCCNC(=O)CC[C@H](NC(=O)CCCCCCCCCCCCC(=O)O)C(=O)O)C(=O)N[C@@](C)(Cc1ccc(O)cc1)C(=O)N[C@@H](CC(C)C)C(=O)N[C@H](C(=O)N[C@@H](CCCCNC(=O)COCCOCCNC(=O)COCCOCCNC(=O)CC[C@H](NC(=O)CCCCCCCCCCCCC(=O)O)C(=O)O)C(=O)NCC(=O)NCC(=O)N1CCC[C@H]1C(=O)N[C@@H](CO)C(=O)N[C@@H](CO)C(=O)NCC(=O)N[C@@H](C)C(=O)N1CCC[C@H]1C(=O)N1CCC[C@H]1C(=O)N1CCC[C@H]1C(=O)N[C@@H](CO)C(N)=O)[C@@H](C)CC)[C@@H](C)CC [Example 233] | 91.4 | 0.0269 | > 9950 | > 9950 | 116 | 111 | 0.604 | 105 | 6.08 | 56.7
